Results taken from publication PMC8099175, “SARS-CoV-2 M^pro inhibitors with antiviral activity in a transgenic mouse model” (Science (New York, N.y.), 2021).
Read-outs that look alike come from different tables or passages of the source.

Columns and labels:
[1] = tested on: SARS-CoV-2–infected Vero E6 cells; experiment: cell protection assay (CCK8); format: cell-based; conditions: for EC50: Vero E6 cells, MOI 0.1, 3 dpi, CCK8
[2] = tested on: SARS-CoV-2 in HPAEpiC cells; experiment: RT-qPCR virus replication assay in HPAEpiC cells; format: cell-based; conditions: for EC90: Severe acute respiratory syndrome coronavirus 2
[3] = acute toxicity experiment in rats; format: in vivo; conditions: i.v. 40 mg/kg, i.p. 250 mg/kg, or p.o. 500 mg/kg
[4] = repeated dose toxicity study in rats; format: in vivo; conditions: i.v. 6 and 18 mg kg^–1 day^–1, i.p. 100 and 200 mg kg^–1 day^–1, or p.o. 100 and 200 mg/kg twice daily, 7 consecutive days
SARS-CoV-2 = experiment: hACE2 transgenic mouse model of SARS-CoV-2 infection; format: in vivo, hACE2 transgenic mice; conditions: for viral RNA loads in the lung tissues: 2 × 10^6 TCID50, 50 mg/kg, 3 and 5 dpi; for viral loads in the lung tissues: 5 dpi; for lung histopathology / neutrophils and macrophages in the lungs vs control mice: 5 × 10^6 TCID50, 3 dpi; for expression levels of IFN-β and CXCL10 in the lungs: 5 × 10^6 TCID50, lung tissue homogenate; for lung viral loads and lung lesions: oral or intraperitoneal treatment, summary statement; for abnormal behaviors or body weight loss: pilot study, 2 × 10^6 TCID50, MI-09 50 mg/kg p.o. bid or i.p. qd, MI-30 50 mg/kg i.p. qd, 6-day period
[5] = PK experiments in Sprague-Dawley rats; conditions: rat
Description: To identify which of the six compounds is suitable for in vivo antiviral studies, we conducted PK experiments in Sprague-Dawley rats.

[6] = Severe acute respiratory syndrome coronavirus 2, Vero C1008
[7] = Severe acute respiratory syndrome coronavirus 2, read-out: EC50, SARS-CoV-2 virus replication (RT-qPCR)
[8] = 2 × 10^6 TCID50, 50 mg/kg (MI-09 p.o. bid or i.p. qd; MI-30 i.p. qd), 1 dpi
[9] = 5 × 10^6 TCID50, 100 mg/kg i.p. or p.o., 1 dpi
[10] = 5 × 10^6 TCID50, 100 mg/kg i.p. or p.o., 3 dpi
[11] = 5 × 10^6 TCID50, 100 mg/kg i.p. or p.o.
[12] = Sprague-Dawley, in vivo, ip, 20 mg/kg
[13] = Sprague-Dawley, in vivo, iv, 10 mg/kg
[14] = Sprague-Dawley, in vivo, po, 20 mg/kg

SMILES | EC90 [1, 6] [nM] | EC50 [1, 6] [nM] | EC90 [2] [nM] | EC50 [2, 7] [nM] | mortality, acute toxicity [3] | toxicity, repeated dose [4] | mean viral RNA loads in the lung tissues vs control (SARS-CoV-2; [8]) | viral RNA loads in the lung tissues (SARS-CoV-2) | mean viral RNA loads in the lung tissues vs control (SARS-CoV-2; [9]) | mean viral RNA loads in the lung tissues vs control (SARS-CoV-2; [10]) | viral loads in the lung tissues (SARS-CoV-2; [11]) | lung histopathology (SARS-CoV-2) | neutrophils and macrophages in the lungs vs control mice (SARS-CoV-2) | expression levels of IFN-β and CXCL10 in the lungs (SARS-CoV-2; 3 dpi) | lung viral loads and lung lesions (SARS-CoV-2) | abnormal behaviors or body weight loss (SARS-CoV-2) | AUC [5, 12] [ng·h/mL] | AUC [5, 13] [ng·h/mL] | AUC [5, 14] [ng·h/mL] | bioavailability [5, 14] [%] | other results
CC1(C)[C@@H]2[C@@H](C(=O)N[C@H](C=O)C[C@@H]3CCNC3=O)N(C(=O)COc3ccc(OC(F)(F)F)cc3)C[C@@H]21 [MI-09] | 3620 | 860 | 47.9 | 1.2 | no rats died | did not result in noticeable toxicity | significantly (P < 0.05, Student’s t test) lower | almost undetectable | slightly lower | significantly lower | undetectable | slight alveolar septal thickening and mild inflammatory cell infiltration | fewer | reduced | significantly reduced | no abnormal behaviors or body weight loss were observed | 11600 | 7430 | 1660 | 11.2 | –
CC(C)C[C@H](NC(=O)OCc1ccccc1)C(=O)N[C@@H](CC1CCNC1=O)C(O)S(=O)(=O)O (some centres unmarked) [GC376, reference compound] | – | – | – | – | – | – | – | – | – | – | – | – | – | – | – | – | – | – | – | – | EC50 [1]: 1460 nM; EC50 ([2]; HPAEpiC cells, MOI 0.01, 2 dpi, viral RNA copies in supernatant, read-out: EC50, SARS-CoV-2 virus replication (RT-qPCR)): 153 nM
O=C[C@H](C[C@@H]1CCNC1=O)NC(=O)[C@@H]1[C@H]2CCC[C@H]2CN1C(=O)COc1ccc(Cl)cc1Cl [MI-30] | 2120 | 540 | 58.8 | 1.1 | no rats died | did not result in noticeable toxicity | significantly (P < 0.05, Student’s t test) lower | almost undetectable | slightly lower | significantly lower | undetectable | slight alveolar septal thickening and mild inflammatory cell infiltration | fewer | reduced | significantly reduced | no abnormal behaviors or body weight loss were observed | 14900 | 9770 | 2840 | 14.6 | half-life [5, 12]: 3.88 h; clearance rate (CL) ([5]; i.p. administration): 17.10 ml min^–1 kg^–1
